Patent US10294202B2, “Pyrrolidinones as herbicides” (FMC Corporation, priority 2013, dated 2019)

Experiments:
[1] = tested on: barnyardgrass; assay: Test A pre-/postemergence herbicide test; assay type: in vivo, Echinochloa crus-galli
Summary of the method: (§1)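 Seeds sown in loam soil/sand blend received a preemergence directed soil spray of test chemical in non-phytotoxic solvent with surfactant; postemergence plants (2–10 cm, one- to two-leaf stage) were sprayed with the same formulation. After about 10 days in greenhouse, injury was rated visually versus untreated controls, 0 (no effect) to 100 (complete control).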

[2] = tested on: kochia; assay: Test A pre-/postemergence herbicide test; assay type: in vivo, Kochia scoparia; conditions: for Plant response rating, Kochia: 0 to 100 scale
Text: (§2) Seeds of plant species selected from bamyardgrass (Echinochloa crus-galli), kochia (Kochia scoparia), ragweed (common ragweed, Ambrosia elatior), ryegrass, Italian (Italian ryegrass, Lolium multiflorum), crabgrass, large (large crabgrass Digitaria sanguinalis), giant foxtail (Setaria faberii), morningglory (Ipomoea spp.), pigweed (Amaranthus retroflexus), velvetleaf (Abutilon theophrasti), wheat (Triticum aestivum), and corn (Zea mays) were planted into a blend of loam soil and sand and treated preemergence with a directed soil spray using test chemicals formulated in a non-phytotoxic solvent mixture which included a surfactant. At the same time, plants selected from these crop and weed species and also blackgrass (Alopecurus myosuroides), and galium (catchweed bedstraw, Galium aparine) were planted in pots containing the same blend of loam soil and sand and treated with postemergence applications of test chemicals formulated in the same manner. Plants ranged in height from 2 to 10 cm and were in the one- to two-leaf stage for the postemergence treatment. Treated plants and untreated controls were maintained in a greenhouse for approximately 10 days, after which time all treated plants were compared to untreated controls and visually evaluated for injury. Plant response ratings, summarized in Table A, are based on a 0 to 100 scale where 0 is no effect and 100 is complete control. A dash (-) response means no test result.

[3] = tested on: wheat; assay: Test A pre-/postemergence herbicide test; assay type: in vivo, Triticum aestivum; conditions: Postemergence; for Plant response rating, Wheat: 125 g ai/ha, 0 to 100 scale, 0 is no effect, 100 is complete control; for Wheat plant response rating (0 to 100 scale, 0 is no effect, 100 is complete control): 500 g ai/ha
Text: as §2

[4] = tested on: corn; assay: Test A pre-/postemergence herbicide test; assay type: in vivo, Zea mays; conditions: Postemergence; for Plant response rating, Corn: 125 g ai/ha, 0 to 100 scale, 0 is no effect, 100 is complete control; for Corn plant response rating (0 to 100 scale, 0 is no effect, 100 is complete control): 500 g ai/ha
Summary of the method: as §1

[5] = tested on: ryegrass, Italian; assay: Test A pre-/postemergence herbicide test; assay type: in vivo, Lolium multiflorum; conditions: for Plant response rating, Ryegrass, Italian: 0 to 100 scale
Text: as §2

[6] = tested on: pigweed; assay: Test A pre-/postemergence herbicide test; assay type: in vivo, Amaranthus retroflexus; conditions: for Plant response rating, Pigweed: 0 to 100 scale
Summary of the method: as §1

[7] = tested on: galium; assay: Test A postemergence herbicide test; assay type: in vivo, Galium aparine; conditions: for Plant response rating, Galium: 125 g ai/ha, 0 to 100 scale, 0 is no effect, 100 is complete control; for Galium plant response rating (0 to 100 scale, 0 is no effect, 100 is complete control): 500 g ai/ha
Text: (§3) At the same time, plants selected from these crop and weed species and also blackgrass (Alopecurus myosuroides), and galium (catchweed bedstraw, Galium aparine) were planted in pots containing the same blend of loam soil and sand and treated with postemergence applications of test chemicals formulated in the same manner. Plants ranged in height from 2 to 10 cm and were in the one- to two-leaf stage for the postemergence treatment. Treated plants and untreated controls were maintained in a greenhouse for approximately 10 days, after which time all treated plants were compared to untreated controls and visually evaluated for injury. Plant response ratings, summarized in Table A, are based on a 0 to 100 scale where 0 is no effect and 100 is complete control. A dash (-) response means no test result.

[8] = tested on: blackgrass; assay: Test A postemergence herbicide test; assay type: in vivo, Alopecurus myosuroides; conditions: for Plant response rating, Blackgrass: 125 g ai/ha, 0 to 100 scale, 0 is no effect, 100 is complete control; for Blackgrass plant response rating (0 to 100 scale, 0 is no effect, 100 is complete control): 500 g ai/ha
Text: as §3

[9] = tested on: ragweed; assay: Test A pre-/postemergence herbicide test; assay type: in vivo, Ambrosia elatior; conditions: for Plant response rating, Ragweed: 0 to 100 scale
Text: as §2

[10] = tested on: giant foxtail; assay: Test A pre-/postemergence herbicide test; assay type: in vivo, Setaria faberii; conditions: for Plant response rating, Foxtail, Giant: 0 to 100 scale
Text: as §2

[11] = 125 g ai/ha, visual rating, 0 to 100 scale, 0 no effect, 100 complete control, approximately 10 days, preemergence
[12] = Postemergence, 125 g ai/ha, 0 to 100 scale, 0 is no effect, 100 is complete control
[13] = preemergence, 500 g ai/ha, 0 to 100 scale (0 no effect, 100 complete control)
[14] = 125 g ai/ha, visual rating, 0 no effect, 100 complete control, approximately 10 days, preemergence
[15] = Postemergence, 125 g ai/ha, 0 is no effect, 100 is complete control
[16] = preemergence, 500 g ai/ha, 0 is no effect and 100 is complete control

O=C1NCC(c2cc(F)cc(F)c2)C1C(=O)Nc1cccc(F)c1F (racemic) [Compound 157]
Plant response rating, Barnyardgrass [1, 11]: 90
Plant response rating, Barnyardgrass [1, 12]: 70
Barnyardgrass plant response rating (0 to 100 scale, 0 is no effect, 100 is complete control) ([1]; Postemergence, 500 g ai/ha): 80
Plant response rating, Barnyardgrass [1, 13]: 90
Plant response rating, Kochia [2, 14]: 50
Plant response rating, Kochia [2, 15]: 20
Kochia plant response rating (0 to 100 scale, 0 is no effect, 100 is complete control) ([2]; Postemergence, 500 g ai/ha): 30
Plant response rating, Kochia [2, 16]: 70
Plant response rating, Wheat [3]: 40
Wheat plant response rating (0 to 100 scale, 0 is no effect, 100 is complete control) [3]: 70
Plant response rating, Corn [4]: 50
Corn plant response rating (0 to 100 scale, 0 is no effect, 100 is complete control) [4]: 80
Plant response rating, Ryegrass, Italian [5, 14]: 30
Plant response rating, Ryegrass, Italian [5, 15]: 30
Ryegrass, Italian plant response rating (0 to 100 scale, 0 is no effect, 100 is complete control) ([5]; Postemergence, 500 g ai/ha): 30
Plant response rating, Ryegrass, Italian [5, 16]: 60
Plant response rating, Pigweed [6, 14]: 0
Plant response rating, Pigweed [6, 15]: 0
Pigweed plant response rating (0 to 100 scale, 0 is no effect, 100 is complete control) ([6]; Postemergence, 500 g ai/ha): 30
Plant response rating, Pigweed [6, 16]: 50
Plant response rating, Galium [7]: 40
Galium plant response rating (0 to 100 scale, 0 is no effect, 100 is complete control) [7]: 40
Plant response rating, Blackgrass [8]: 30
Blackgrass plant response rating (0 to 100 scale, 0 is no effect, 100 is complete control) [8]: 30
Plant response rating, Ragweed [9, 14]: 30
Plant response rating, Ragweed [9, 15]: 20
Ragweed plant response rating (0 to 100 scale, 0 is no effect, 100 is complete control) ([9]; Postemergence, 500 g ai/ha): 40
Plant response rating, Ragweed [9, 16]: 50
Plant response rating, Foxtail, Giant [10, 14]: 90
Plant response rating, Foxtail, Giant [10, 15]: 80
Foxtail, Giant plant response rating (0 to 100 scale, 0 is no effect, 100 is complete control) ([10]; Postemergence, 500 g ai/ha): 80
Plant response rating, Foxtail, Giant ([10]; preemergence, 500 g ai/ha): 90

O=C1NCC(c2ccc(OC(F)(F)C(F)F)cc2)C1C(=O)Nc1cccc(F)c1F (racemic) [Compound 172]
Plant response rating, Barnyardgrass [1, 11]: 0
Plant response rating, Barnyardgrass [1, 12]: 0
Barnyardgrass plant response rating (0 to 100 scale, 0 is no effect, 100 is complete control) ([1]; Postemergence, 500 g ai/ha): 20
Plant response rating, Barnyardgrass [1, 13]: 20
Plant response rating, Kochia [2, 14]: 30
Plant response rating, Kochia [2, 15]: 0
Kochia plant response rating (0 to 100 scale, 0 is no effect, 100 is complete control) ([2]; Postemergence, 500 g ai/ha): 0
Plant response rating, Kochia [2, 16]: 30
Plant response rating, Wheat [3]: 0
Wheat plant response rating (0 to 100 scale, 0 is no effect, 100 is complete control) [3]: 0
Plant response rating, Corn [4]: 0
Corn plant response rating (0 to 100 scale, 0 is no effect, 100 is complete control) [4]: 0
Plant response rating, Ryegrass, Italian [5, 14]: 0
Plant response rating, Ryegrass, Italian [5, 15]: 0
Ryegrass, Italian plant response rating (0 to 100 scale, 0 is no effect, 100 is complete control) ([5]; Postemergence, 500 g ai/ha): 0
Plant response rating, Ryegrass, Italian [5, 16]: 0
Plant response rating, Pigweed [6, 14]: 0
Plant response rating, Pigweed [6, 15]: 0
Pigweed plant response rating (0 to 100 scale, 0 is no effect, 100 is complete control) ([6]; Postemergence, 500 g ai/ha): 0
Plant response rating, Pigweed [6, 16]: 0
Plant response rating, Galium [7]: 0
Galium plant response rating (0 to 100 scale, 0 is no effect, 100 is complete control) [7]: 0
Plant response rating, Blackgrass [8]: 0
Blackgrass plant response rating (0 to 100 scale, 0 is no effect, 100 is complete control) [8]: 0
Plant response rating, Ragweed [9, 14]: 0
Plant response rating, Ragweed [9, 15]: 0
Ragweed plant response rating (0 to 100 scale, 0 is no effect, 100 is complete control) ([9]; Postemergence, 500 g ai/ha): 0
Plant response rating, Ragweed [9, 16]: 0
Plant response rating, Foxtail, Giant [10, 14]: 20
Plant response rating, Foxtail, Giant [10, 15]: 0
Foxtail, Giant plant response rating (0 to 100 scale, 0 is no effect, 100 is complete control) ([10]; Postemergence, 500 g ai/ha): 30
Plant response rating, Foxtail, Giant ([10]; preemergence, 500 g ai/ha): 30
